Assay results as given in US8754032B2, “Concomitant pharmaceutical agents and use thereof” (Mitsubishi Tanabe Pharma Corporation, priority 2005, dated 2014).
Like-named read-outs stand apart in the source and are kept apart here.

Key:
Zucker Fatty (ZF) rats = assay: Oral carbohydrate loading test of Zucker Fatty rats: compound 3, voglibose and combination (plasma glucose and insulin); type: in vivo, rat
Description: Four groups each containing 5 rats were formed. […] [table]

Cc1cc(N2CCN([C@@H]3CN[C@H](C(=O)N4CCSC4)C3)CC2)n(-c2ccccc2)n1 [compound 3, 3-{(2S,4S)-4-[4-(3-methyl-1-phenyl-1H-pyrazol-5-yl)piperazin-1-yl]pyrrolidin-2-ylcarbonyl}thiazolidine]
suppression of increase in plasma glucose after oral carbohydrate loading, as compared to the vehicle group (Zucker Fatty (ZF) rats; rat, in vivo): 33%
increase of plasma insulin concentration as compared to the vehicle group (Zucker Fatty (ZF) rats; rat, in vivo, po, 0.1 mg/kg): about 3 fold
suppression of increase in plasma glucose after oral carbohydrate loading, as compared to the vehicle group (ZF rats; rat, in vivo): 33%

CN(C)C(=N)N=C(N)N [metformin, reference compound]
suppression of increase in plasma glucose after oral carbohydrate loading, as compared to the vehicle group (ZF rats; male ZF rats, overnight fasted, compound 3 0.3 mg/kg and/or metformin 50 mg/kg given 15 min before mixed carbohydrates 3.5 g/kg orally, area value over 120 min): 13%

OCC(CO)N[C@H]1C[C@](O)(CO)[C@@H](O)[C@H](O)[C@H]1O [voglibose, reference compound]
suppression of increase in plasma glucose after oral carbohydrate loading, as compared to the vehicle group (Zucker Fatty (ZF) rats; male ZF rats, overnight fasted, compound 3 0.1 mg/kg and/or voglibose 0.1 mg/kg given 15 min before mixed carbohydrates 3.5 g/kg orally, area value over 60 min): 34%
